From PMC10300102, “In vivo inhibition of nuclear ACE2 translocation protects against SARS-CoV-2 replication and lung damage through epigenetic imprinting” (Nature Communications, 2023)
Where “and” joins values, the source holds several entries; their conditions need not be identical. Equal entries are not always repeated. Where two headings read alike, the source gives them in different places. Where a SMILES comes first, the peptide text is derived from it. The star is where a group is joined. Myristoyl = CCCCCCCCCCCCCC(=O)*

Columns and labels:
[1] = test system: perforin-positive and CD3+ cells; format: in vivo, golden Syrian hamsters; conditions: hamster lungs 2 dpi; for %CD3+ / %Perforin+: individual animals, n=5
[2] = test system: ACE2, ACE2me, SARS-CoV-2 spike protein; design: species or system golden Syrian hamsters; conditions: hamster, in vivo
[3] = test system: H3K27ac; design: species or system golden Syrian hamsters; conditions: hamster, in vivo
[4] = test system: SARS-CoV-2 (QLD02) in Caco2 cells; conditions: cited from earlier work

CCCCCCCCCCCCCC(=O)N[C@H](C(=O)NCC(=O)N[C@H](C(=O)N[C@@H](CCCNC(=N)N)C(=O)N[C@@H](CC(=O)O)C(=O)N[C@@H](CCCNC(=N)N)C(=O)N[C@@H](CCCCN)C(=O)N[C@@H](CCCCN)C(=O)N[C@@H](CCCCN)C(=O)N[C@@H](CC(N)=O)C(=O)N[C@@H](CCCCN)C(=O)N[C@@H](C)C(=O)N[C@@H](CCCNC(=N)N)C(=O)N[C@@H](CO)C(=O)O)[C@@H](C)CC)[C@@H](C)O [NACE2i] (Myristoyl-TGIRDRKKKNKARS-OH)
%CD3+ ([1]; i.p. NACE2i): 7.228% and 6.247% and 7.351% and 8.086% | %Perforin+ ([1]; i.p. NACE2i): 14.1151% and 9.254% and 20.5795% and 12.5121% | %CD3+ ([1]; i.v. NACE2i): 6.775% and 4.046% and 7.435% and 7.728% and 7.891% | %Perforin+ ([1]; i.v. NACE2i): 8.914% and 7.676% and 12.1345% and 7.891% and 7.955% | number of CD3+ cells ([1]; i.v. or i.p.): significantly increased | proportion of perforin-positive cells ([1]; i.v. or i.p.): significantly increased | ACE2me in the bronchioles [2]: significantly upregulated | Fn/c of ACE2 [2]: significantly reduced | SARS-CoV-2 spike protein expression in bronchioles [2]: significantly reduced or eliminated | global ACE2 and proportion of ACE2+ cells [2]: no significant change | nuclear ACE2 expression in bronchiolar epithelial cells [2]: significantly reduced | proportion of cells co-expressing ACE2 and ACE2me [2]: increased | H3K27ac along with ACE2me in lung tissues [3]: significant H3K27ac induction | SARS-CoV-2 replication in Caco2 cells [4]: significantly inhibit
